These results are taken from patent publication US9546153B2, “Bicyclic heterocycle substituted pyridyl compounds useful as kinase modulators” (BRISTOL-MYERS SQUIBB COMPANY, priority 2012, dated 2017).

SMILES strings stand for the structures. Read-outs that look alike come from different tables or passages of the source.

Assay [1] has as its system TLR2 induced IL-6 in peripheral blood mononuclear cells (PBMCs). The assay is described as follows: PBMC TLR2 Induced IL-6 Assay. It counts as cell-based, human. As to conditions: human PBMCs, 10 μg/ml lipoteichoic acid for 5 hours, IL-6 by ELISA; for EC50: EC50 determinations are indicated with an asterisk, read-out: Cell EC50 (asterisk); for IC50: value without asterisk, read-out: Cell IC50. A digest of the protocol: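 IL-6 ELISA of supernatants after a 5 h challenge with the TLR2 agonist lipoteichoic acid (10 μg/ml). Before stimulation, human PBMCs (250000 cells/well; RPMI, 10% heat-inactivated FCS) received compound for 30 min at 37° C. Values given as IC50 or EC50.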
In general terms: In an ELISA, binding on a coated surface is turned into a signal by an enzyme label.

For another assay, the target named is IRAK4 (Homo sapiens (Human), UniProt Q9NWZ3). Briefly: IRAK4 Inhibition Assay. The assay is classed as biochemical. Conditions: ATP 500 μM; IRAK4 0.6 nM; 60 min at room temperature. As for the experimental part:
The assays were performed in U-bottom 384-well plates. […] The reaction was initiated by the combination of IRAK4 with substrates and test compounds. The reaction was incubated at room temperature for 60 min. and terminated by adding 45 μL of 35 mM EDTA to each sample. The reaction mixture was analyzed on the Caliper LABCHIP® 3000 (Caliper, Hopkinton, Mass.) by electrophoretic separation of the fluorescent substrate and phosphorylated product.

IRAK4, sequence (Q9NWZ3 whole entry, species assumed): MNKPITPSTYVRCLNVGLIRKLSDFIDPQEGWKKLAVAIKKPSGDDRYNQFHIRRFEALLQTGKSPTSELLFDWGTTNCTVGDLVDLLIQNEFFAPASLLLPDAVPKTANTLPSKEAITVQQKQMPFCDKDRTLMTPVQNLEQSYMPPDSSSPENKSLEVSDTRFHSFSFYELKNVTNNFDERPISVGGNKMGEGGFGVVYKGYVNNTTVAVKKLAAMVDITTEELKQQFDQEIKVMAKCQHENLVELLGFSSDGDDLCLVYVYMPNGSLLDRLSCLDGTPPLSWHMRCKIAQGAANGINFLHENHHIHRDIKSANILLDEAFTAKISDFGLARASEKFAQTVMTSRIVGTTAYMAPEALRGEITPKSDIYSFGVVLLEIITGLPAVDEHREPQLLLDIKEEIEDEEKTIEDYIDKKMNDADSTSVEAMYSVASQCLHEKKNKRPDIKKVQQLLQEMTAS

The term EC50 denotes the concentration that produces a half-maximal response. One may read the IC50 as the midpoint of a concentration-inhibition curve. Regarding `CC(C)(O)C1CCC(NC(=O)c2cnc(Nc3ccc4ncsc4c3)cc2NC2CCCOC2)CC1` (stereo not drawn) [Example 490], the EC50 in assay [1] (Homo sapiens, PBMC, 5 h) worked out at 0.277 µM. The half-maximal inhibitory concentration (IC50) on IRAK4 came out at 0.0042 µM.

Regarding `CC(C)(O)C1CCC(NC(=O)c2cnc(Nc3ccc4ncsc4c3)cc2NC2CCCOC2)CC1` (stereo not drawn) [Example 491], in assay [1], the 50% effective concentration (EC50) was found to be 0.281 µM. Further, at IRAK4, the IC50 is 0.005 µM.

For the molecule `CCNc1cc(Nc2nc3ccnn3cc2F)ncc1C(=O)NC1CCC(C(C)(C)O)CC1` (stereo not drawn) [Example 492], the EC50 in assay [1] (Homo sapiens, PBMC, 5 h) worked out at 0.454 µM. Also, the IC50 at IRAK4 stood at 0.0121 µM.

Turning to `CC(C)(O)C(F)(F)CNC(=O)c1cnc(Nc2nc3scnc3cc2F)cc1NC1CC1` [Example 493], the concentration for a half-maximal effect (EC50) in assay [1] (Homo sapiens, PBMC, 5 h) was 0.365 µM. For the same molecule, the concentration for half-maximal inhibition (IC50) on IRAK4 was 0.0043 µM.

On to `CC(C)Nc1cc(Nc2ccc3ncsc3c2)ncc1C(=O)NC1CCc2[nH]ncc2C1` (stereo not drawn) [Example 494], for which the EC50 in assay [1] (Homo sapiens, PBMC, 5 h) came out at 0.209 µM. Also, the IC50 at IRAK4 turned out to be 0.0085 µM.

For the molecule `CC(C)(O)[C@H](F)CNC(=O)c1cnc(Nc2ncc3ccc(F)cc3n2)cc1NC1CCOCC1` [Example 495], the EC50 in assay [1] (Homo sapiens, PBMC, 5 h) was found to be 0.447 µM. Besides, the half-maximal inhibitory concentration (IC50) at IRAK4 came out at 0.0119 µM.

Regarding `CC(C)(O)[C@H](F)CNC(=O)c1cnc(Nc2nc3ccnn3cc2F)cc1NC1CCCCC1(F)F` (stereo partly drawn) [Example 496], the EC50 in assay [1] was 0.091 µM. At IRAK4, the IC50 is 0.0064 µM.

As to `CC(C)(O)[C@H](F)CNC(=O)c1cnc(Nc2nc3ccnn3cc2F)cc1NC1CCCCC1(F)F` (stereo partly drawn) [Example 497], the EC50 in assay [1] was determined as 0.299 µM. Besides, the IC50 at IRAK4 is 0.0152 µM.

With `CC(C)(O)[C@H](F)CNC(=O)c1cnc(Nc2cc3nccnc3cc2F)cc1NC1CCC1` [Example 500], in assay [1] (Homo sapiens, PBMC, 5 h), the EC50 turned out to be 0.228 µM. Moreover, the IC50 on IRAK4 was found to be 0.0054 µM.

Consider `CC(C)Nc1cc(Nc2cc3nccnc3cc2F)ncc1C(=O)NC[C@@H](F)C(C)(C)O` [Example 501], for which the 50% effective concentration (EC50) in assay [1] (Homo sapiens, PBMC, 5 h) is 0.209 µM. Moreover, the half-maximal inhibitory concentration (IC50) on IRAK4 was 0.0045 µM.

As to `CC(CCF)Nc1cc(Nc2nc3ccnn3cc2F)ncc1C(=O)NC[C@@H](F)C(C)(C)O` (stereo partly drawn) [Example 502], the EC50 in assay [1] (Homo sapiens, PBMC, 5 h) was 0.144 µM. The IC50 at IRAK4 was found to be 0.0048 µM.

Consider `CNC(=O)[C@H]1CC[C@H](NC(=O)c2cnc(Nc3ccc4ncsc4c3)cc2NC2CCC2)CC1` [Example 504], for which the half-maximal inhibitory concentration (IC50) in assay [1] (Homo sapiens, PBMC, 5 h) is 0.496 µM; at IRAK4, 0.0047 µM.

On to `CNC(=O)[C@H]1CC[C@H](NC(=O)c2cnc(Nc3ccc4ncsc4c3)cc2NCC(F)(F)F)CC1` [Example 506], for which the concentration for half-maximal inhibition (IC50) was determined as 0.32 µM in assay [1] (Homo sapiens, PBMC, 5 h) and 0.0065 µM on IRAK4.

`CNC(=O)[C@H]1CC[C@H](NC(=O)c2cnc(Nc3cnc4[nH]ccc4c3)cc2NC(C)C)CC1` [Example 507]: the half-maximal inhibitory concentration (IC50) in assay [1] (Homo sapiens, PBMC, 5 h) was found to be 0.523 µM; on IRAK4, 0.012 µM.

For `CNC(=O)[C@H]1CC[C@H](NC(=O)c2cnc(Nc3nc4ccnn4cc3F)cc2NC2CC2)CC1` [Example 508], the IC50 is 10 µM in assay [1] (Homo sapiens, PBMC, 5 h) and 0.0102 µM at IRAK4.

Turning to `CNC(=O)[C@H]1CC[C@H](NC(=O)c2cnc(Nc3nc4ccnn4cc3F)cc2NC2CCOCC2)CC1` [Example 509], the IC50 in assay [1] (Homo sapiens, PBMC, 5 h) was 1.2 µM; at IRAK4, 0.0095 µM.

On to `CNC(=O)[C@H]1CC[C@H](NC(=O)c2cnc(Nc3ccc4ncsc4n3)cc2NC2CCOCC2)CC1` [Example 510], for which the EC50 in assay [1] (Homo sapiens, PBMC, 5 h) was 0.028 µM. Also, the half-inhibitory concentration (IC50) at IRAK4 stood at 0.0015 µM.

In the case of `CC(=O)N[C@H]1CC[C@H](NC(=O)c2cnc(Nc3ccc4ncsc4c3)cc2N[C@H]2CCOC[C@@H]2F)CC1` [Example 511], the half-inhibitory concentration (IC50) in assay [1] (Homo sapiens, PBMC, 5 h) is 0.611 µM; on IRAK4, 0.0042 µM.

`CC(=O)N[C@H]1CC[C@H](NC(=O)c2cnc(Nc3nc4ccnn4cc3F)cc2NC(C)C)CC1` [Example 512]: the IC50 was 0.602 µM in assay [1] (Homo sapiens, PBMC, 5 h) and 0.0174 µM on IRAK4.

Turning to `CC(=O)N[C@H]1CC[C@H](NC(=O)c2cnc(Nc3nc4ccnn4cc3F)cc2NC2CCOCC2)CC1` [Example 513], the IC50 in assay [1] (Homo sapiens, PBMC, 5 h) is 1.57 µM; at IRAK4 it was 0.0094 µM.

Consider `CC(=O)N[C@H]1CC[C@H](NC(=O)c2cnc(Nc3ccc4ncsc4n3)cc2NC2CCOCC2)CC1` [Example 514], for which, in assay [1] (Homo sapiens, PBMC, 5 h), the 50% effective concentration (EC50) came to 0.026 µM. For the same molecule, the IC50 at IRAK4 came out at 0.0018 µM.

`CC(C)(O)[C@H](F)CNC(=O)c1cnc(Nc2cc3scnc3cc2F)cc1NCC(F)(F)F` [Example 515]: the concentration for half-maximal inhibition (IC50) in assay [1] (Homo sapiens, PBMC, 5 h) is 0.45 µM; at IRAK4, 0.0034 µM.

In the case of `CCNc1cc(Nc2cc3scnc3cc2F)ncc1C(=O)NC[C@@H](F)C(C)(C)O` [Example 516], the IC50 was 1.2 µM in assay [1] (Homo sapiens, PBMC, 5 h) and 0.0031 µM at IRAK4.

For `CC(C)(O)[C@H](F)CNC(=O)c1cnc(Nc2cc3scnc3cc2F)cc1NC1CCCOC1` (stereo partly drawn) [Example 517], the IC50 in assay [1] (Homo sapiens, PBMC, 5 h) came to 1.29 µM; at IRAK4 it was 0.006 µM.

Turning to `CC(C)(O)[C@H](F)CNC(=O)c1cnc(Nc2cc3scnc3cc2F)cc1NC1CCCOC1` (stereo partly drawn) [Example 518], the figures for the IC50 (in assay [1]; at IRAK4) were 1.83 µM and 0.0038 µM, respectively.

With `CC(C)(O)[C@H](F)CNC(=O)c1cnc(Nc2nc3scnc3cc2F)cc1NCC(F)(F)F` [Example 519], the half-maximal inhibitory concentration (IC50) in assay [1] (Homo sapiens, PBMC, 5 h) was determined as 0.634 µM; on IRAK4, 0.0022 µM.

On to `CC(C)(O)[C@H](F)CNC(=O)c1cnc(Nc2cc3scnc3cc2F)cc1NC1CCOCC1` [Example 520], for which the half-inhibitory concentration (IC50) in assay [1] (Homo sapiens, PBMC, 5 h) was determined as 1.06 µM; on IRAK4, 0.0025 µM.

On to `CC(C)Nc1cc(Nc2ccc3ncsc3c2)ncc1C(=O)NC1CCc2nc(N)sc2C1` (stereo not drawn) [Example 521], for which the half-maximal inhibitory concentration (IC50) in assay [1] (Homo sapiens, PBMC, 5 h) is 2.33 µM; at IRAK4, 0.0085 µM.

On to `CC(C)Nc1cc(Nc2ccc3ncsc3c2)ncc1C(=O)N[C@H]1CC[C@H]([N+](=O)[O-])CC1` [Example 523, 6-(benzo[d]thiazol-6-ylamino)-4-(isopropylamino)-N-((trans)-4-nitrocyclohexyl)nicotinamide], for which the half-maximal effective concentration (EC50) in assay [1] (Homo sapiens, PBMC, 5 h) worked out at 0.365 µM. Also, on IRAK4, the IC50 amounted to 0.0054 µM.

`CC(C)Nc1cc(Nc2ccc3ncsc3c2)ncc1C(=O)NC1CCC(O)(c2ccnn2C)CC1` (stereo not drawn) [Example 524]: the concentration for a half-maximal effect (EC50) in assay [1] (Homo sapiens, PBMC, 5 h) came to 0.075 µM. The half-maximal inhibitory concentration (IC50) at IRAK4 worked out at 0.0037 µM.

Turning to `CC(C)Nc1cc(Nc2ccc3ncsc3c2)ncc1C(=O)NC1CCC2(CC1)NC(=O)NC2=O` (stereo not drawn) [Example 525, 6-(benzo[d]thiazol-6-ylamino)-N-(2,4-dioxo-1,3-diazaspiro[4.5]decan-8-yl)-4-(isopropylamino)nicotinamide], the concentration for a half-maximal effect (EC50) in assay [1] (Homo sapiens, PBMC, 5 h) was 0.131 µM. For the same molecule, the concentration for half-maximal inhibition (IC50) at IRAK4 was determined as 0.0015 µM.

For the molecule `CC(C)Nc1cc(Nc2ccc3ncsc3c2)ncc1C(=O)NC1CCC(=O)CC1` [Example 526, 6-(benzo[d]thiazol-6-ylamino)-4-(isopropylamino)-N-(4-oxocyclohexyl)nicotinamide], the concentration for a half-maximal effect (EC50) in assay [1] (Homo sapiens, PBMC, 5 h) worked out at 0.423 µM. Also, the IC50 on IRAK4 turned out to be 0.0066 µM.

Consider `CC(C)Nc1cc(Nc2ccc3ncsc3c2)ncc1C(=O)NC1CCc2nnnn2CC1` (stereo not drawn) [Example 527, 6-(benzo[d]thiazol-6-ylamino)-4-(isopropylamino)-N-(6,7,8,9-tetrahydro-5H-tetrazolo[1,5-a]azepin-7-yl)nicotinamide], for which the concentration giving a half-maximal response (EC50) in assay [1] (Homo sapiens, PBMC, 5 h) turned out to be 0.32 µM. For the same molecule, the concentration for half-maximal inhibition (IC50) at IRAK4 worked out at 0.0077 µM.
